Reference: patent US20230109801A1 (Blue Oak Pharmaceuticals, Inc., priority 2020, published 2023)
Where a name gives a salt, the structure may show the parent alone.

Test system: mice
Experiment: SmartCube in vivo neuropharmacological behavioral assay
Settings: for minimal effective dose: Mus musculus, ip, dose having 50% or more total activity in SmartCube, i.p., read-out: MED (minimal effective dose); for AD: antidepressant, percent probability / AG: analgesic, percent probability / AP: antipsychotic, percent probability / AX: anxiolytic, percent probability / CE: cognitive enhancer, percent probability / HA: hallucinogenic, percent probability / MS: mood stabilizer, percent probability / PS, percent probability / SD: sedative hypnotic, percent probability / SE: side effects, percent probability / UN: uncharacterized CNS activity, percent probability / XG: anxiogenic, percent probability: SmartCube, i.p. 15 min before test, at the MED
Procedure: The compounds were evaluated for their CNS related properties (e.g., the treatment, prevention or diagnosis of CNS or CNS-related disorders and/or amelioration of symptoms) using neuropharmacological screening methods described in S. L. Roberts et al., Front. Neurosci. 2011, 5:103 (hereinafter referred to as “Roberts,” the contents of which are incorporated herein by reference in their entirety).
According to Roberts, intact systems are useful in detecting improvement in disease-relevant endpoints, because psychiatric diseases generally result from disorders of cell-cell communication or circuitry. The endpoints are typically behavioral in nature, often requiring human observation and interpretation. In order to test multiple compounds for behavioral effects relevant to neurological and psychiatric diseases and disorders, PsychoGenics, Inc. (Paramus, N.J. “PGI”) developed SmartCube®, an automated system in which behaviors of compound-treated mice are captured by digital video and analyzed with computer algorithms to facilitate testing of multiple compounds for behavioral effects relevant to psychiatric disease. (D. Brunner et al., Drug Discov. Today 2002, 7:S107-S112; Alexandrov et al., Eur. J. Pharmacol. 2015, 753:127-134; the contents of each of which are incorporated herein by reference in their entirety).
The SmartCube® system is described in Example 2.2 of U.S. Pat. No. 9,758,529 and Example 289 of WIPO Publication No. WO2018/023070, the contents of each of which are incorporated herein by reference in their entirety.
According to the present disclosure, compounds identified may be evaluated using the SmartCube® system. The results of such analysis correlate certain patterns or combinations of behaviors to CNS effects along a percent probability scale of 0-100 where zero (O) reflects the limit of quantitation (LOQ).
The compounds of the present disclosure were evaluated for their CNS related properties (e.g., the treatment, prevention or diagnosis of CNS or CNS-related disorders and/or amelioration of symptoms) using neuropharmacological screening methods described in S. L. Roberts et al., Front. Neurosci. 2011, 5:103 (hereinafter referred to as “Roberts,” the contents of which are incorporated herein by reference in their entirety).
The SmartCube® system described herein was utilized to compare the behavioral signature of a test compound to a database of behavioral signatures obtained using a large set of diverse reference compounds (including but not limited to antipsychotics, anxiolytics, antidepressants and bipolar disorder medicine), thereby predicting the neuropharmacological effects of a test compound by similarity to major classes of compounds. It produces an activity signature indicating the probability that the activity of the test compound at the administered dose matches a given class of neuropharmacological agents. The test compound is simultaneously compared against multiple classes of agents; thus, a separate probability is generated for each behavioral effect measured (such as but not limited to anxiolytic activity and analgesic activity).
The compounds of the present disclosure were dissolved in a mixture of Pharmasolve™ (N-methyl-2-pyrrolidone (NMP)) and were injected i.p. 15 min. before the behavioral test. For each compound, injections were administered at different dose levels (e.g., 0.3, 1, 3, 10 and 30 mg per kg (mpk)). A compound's minimal effective dose (MED; see Table 3) is a measure of the compound's potency. The MED was defined as the dose (in mpk) having 50% or more total activity in SmartCube®. For each behavioral effect measured, results at the MED are presented. CNS activities of the compounds were recorded (see Table 2). In Table 1, a key to the percent probabilities (probability×100) for each behavioral effect (“X”) are defined provided, where LOQ is the limit of quantification.

| Structure (SMILES) | minimal effective dose | AD: antidepressant, percent probability | AG: analgesic, percent probability | AP: antipsychotic, percent probability | AX: anxiolytic, percent probability | CE: cognitive enhancer, percent probability | HA: hallucinogenic, percent probability | MS: mood stabilizer, percent probability | PS, percent probability | SD: sedative hypnotic, percent probability | SE: side effects, percent probability | UN: uncharacterized CNS activity, percent probability | XG: anxiogenic, percent probability |
| --- | --- | --- | --- | --- | --- | --- | --- | --- | --- | --- | --- | --- | --- |
| C1=CC2NC1c1ccccc12 [Compound 52, 11-Azatricyclo[6.2.1.0^2,7]undeca-2,4,6,9-tetraene hydrochloride] | > 30 mg/kg | + (LOQ ≤ X < 5%) | + (LOQ ≤ X < 5%) | + (LOQ ≤ X < 5%) | + (LOQ ≤ X < 5%) | + (LOQ ≤ X < 5%) | + (LOQ ≤ X < 5%) | + (LOQ ≤ X < 5%) | + (LOQ ≤ X < 5%) | + (LOQ ≤ X < 5%) | + (LOQ ≤ X < 5%) | + (LOQ ≤ X < 5%) | + (LOQ ≤ X < 5%) |
| CC(C)N1C2C=CC1c1c(Cl)cccc12 (stereo not drawn) [Compound 12, 3-Chloro-11-(propan-2-yl)-11-azatricyclo[6.2.1.0^2,7]undeca-2,4,6,9-tetraene hydrochloride] | > 30 mg/kg | + (LOQ ≤ X < 5%) | + (LOQ ≤ X < 5%) | + (LOQ ≤ X < 5%) | +++ (25% ≤ X < 50%) | + (LOQ ≤ X < 5%) | + (LOQ ≤ X < 5%) | + (LOQ ≤ X < 5%) | ++ (5% ≤ X < 25%) | + (LOQ ≤ X < 5%) | + (LOQ ≤ X < 5%) | + (LOQ ≤ X < 5%) | + (LOQ ≤ X < 5%) |
| CC(C)C(C)N1C2CCC1c1ccccc12 (stereo not drawn) [Compound 47, 11-(3-Methylbutan-2-yl)-11-azatricyclo[6.2.1.0^2,7]undeca-2,4,6-triene hydrochloride] | 10 to 30 mg/kg | ++++ (50% ≤ X <1 00%) | + (LOQ ≤ X < 5%) | + (LOQ ≤ X < 5%) | + (LOQ ≤ X < 5%) | + (LOQ ≤ X < 5%) | + (LOQ ≤ X < 5%) | + (LOQ ≤ X < 5%) | + (LOQ ≤ X < 5%) | + (LOQ ≤ X < 5%) | + (LOQ ≤ X < 5%) | ++ (5% ≤ X < 25%) | + (LOQ ≤ X < 5%) |
| CCC(C)N1C2C=CC1c1ccccc12 (stereo not drawn) [Compound 55, 11-(Butan-2-yl)-11-azatricyclo[6.2.1.0^2,7]undeca-2,4,6,9-tetraene hydrochloride] | 10 to 30 mg/kg | +++ (25% ≤ X < 50%) | + (LOQ ≤ X < 5%) | + (LOQ ≤ X < 5%) | ++ (5% ≤ X < 25%) | + (LOQ ≤ X < 5%) | + (LOQ ≤ X < 5%) | + (LOQ ≤ X < 5%) | ++ (5% ≤ X < 25%) | + (LOQ ≤ X < 5%) | + (LOQ ≤ X < 5%) | +++ (25% ≤ X < 50%) | + (LOQ ≤ X < 5%) |
| c1ccc2c(c1)C1CCC2N1C1CCCC1 [Compound 43, 11-Cyclopentyl-11-azatricyclo[6.2.1.0^2,7]undeca-2,4,6-triene hydrochloride] | 10 to 30 mg/kg | ++++ (50% ≤ X <1 00%) | + (LOQ ≤ X < 5%) | + (LOQ ≤ X < 5%) | ++ (5% ≤ X < 25%) | + (LOQ ≤ X < 5%) | + (LOQ ≤ X < 5%) | + (LOQ ≤ X < 5%) | ++ (5% ≤ X < 25%) | + (LOQ ≤ X < 5%) | + (LOQ ≤ X < 5%) | ++ (5% ≤ X < 25%) | + (LOQ ≤ X < 5%) |
| CC(C)N1C2CCC1c1c(Cl)cccc12 (stereo not drawn) [Compound 14, 3-Chloro-11-(propan-2-yl)-11-azatricyclo[6.2.1.0^2,7]undeca-2,4,6-triene hydrochloride] | > 30 mg/kg | +++ (25% ≤ X < 50%) | ++ (5% ≤ X < 25%) | + (LOQ ≤ X < 5%) | ++ (5% ≤ X < 25%) | + (LOQ ≤ X < 5%) | + (LOQ ≤ X < 5%) | + (LOQ ≤ X < 5%) | ++ (5% ≤ X < 25%) | + (LOQ ≤ X < 5%) | + (LOQ ≤ X < 5%) | + (LOQ ≤ X < 5%) | + (LOQ ≤ X < 5%) |
| CC(C)N1C2CCC1c1ccccc12 [Compound 42, 11-(Propan-2-yl)-11-azatricyclo[6.2.1.0^2,7]undeca-2,4,6-triene hydrochloride] | 10 to 30 mg/kg | ++ (5% ≤ X < 25%) | ++ (5% ≤ X < 25%) | + (LOQ ≤ X < 5%) | + (LOQ ≤ X < 5%) | + (LOQ ≤ X < 5%) | ++ (5% ≤ X < 25%) | + (LOQ ≤ X < 5%) | +++ (25% ≤ X < 50%) | + (LOQ ≤ X < 5%) | + (LOQ ≤ X < 5%) | ++ (5% ≤ X < 25%) | + (LOQ ≤ X < 5%) |
| COc1cccc2c1C1C=CC2N1 (stereo not drawn) [Compound 16, 3-Methoxy-11-azatricyclo[6.2.1.0^2,7]undeca-2,4,6,9-tetraene hydrochloride] | > 30 mg/kg | + (LOQ ≤ X < 5%) | + (LOQ ≤ X < 5%) | + (LOQ ≤ X < 5%) | ++ (5% ≤ X < 25%) | + (LOQ ≤ X < 5%) | + (LOQ ≤ X < 5%) | + (LOQ ≤ X < 5%) | + (LOQ ≤ X < 5%) | + (LOQ ≤ X < 5%) | + (LOQ ≤ X < 5%) | ++ (5% ≤ X < 25%) | + (LOQ ≤ X < 5%) |
| Fc1cc2c(cc1F)C1CCC2N1 [Compound 7, 4,5-Difluoro-11-azatricyclo[6.2.1.0^2,7]undeca-2,4,6-triene hydrochloride] | > 30 mg/kg | ++ (5% ≤ X < 25%) | ++ (5% ≤ X < 25%) | + (LOQ ≤ X < 5%) | +++ (25% ≤ X < 50%) | + (LOQ ≤ X < 5%) | + (LOQ ≤ X < 5%) | + (LOQ ≤ X < 5%) | + (LOQ ≤ X < 5%) | + (LOQ ≤ X < 5%) | ++ (5% ≤ X < 25%) | + (LOQ ≤ X < 5%) | + (LOQ ≤ X < 5%) |
